The text below walks through data of patent US8933056B2, “Soft protease inhibitors and pro-soft forms thereof” (Trustees of Tufts College, priority 2005, dated 2015).

Like-named read-outs stand apart in the source and are kept apart here.

This assay addresses DP-IV (Sus scrofa (Pig), UniProt P22411). Kind of assay: DPP IV inhibition: thioxamide v. oxoamide. It counts as biochemical, porcine. Particulars: for Inactivation Index: IC50 pH 8.0 to pH 2.0. How it is done:
The inhibitory activity of a compound may be tested easily. […] A compound is then screened for its ability to inhibit the protease activity of DP-IV with respect to a […] substrate. […] Briefly, a reaction containing 50 micromol sodium Hepes (pH 7.8), 10 micromol Ala-Pro-p-nitroanilide, 6 milliunits of DP-IV, and 2% (vol/vol) dimethylformamide in a total volume of 1.0 mL. The reaction was initiated by the addition of enzyme and reaction rates were measured at 25 C; formation of reaction product (para-nitroanilide) in the presence and absence of a test compound can be detected photometrically, e.g., at 410 nm.

Setting [1] is: pH 2.0, read-out: IC50 (pH 2.0).
[2] abbreviates: pH 8.0, read-out: IC50 (pH 8.0).

As usually defined, the IC50 is the concentration at which inhibition is half-maximal.

DP-IV, sequence (P22411 whole entry): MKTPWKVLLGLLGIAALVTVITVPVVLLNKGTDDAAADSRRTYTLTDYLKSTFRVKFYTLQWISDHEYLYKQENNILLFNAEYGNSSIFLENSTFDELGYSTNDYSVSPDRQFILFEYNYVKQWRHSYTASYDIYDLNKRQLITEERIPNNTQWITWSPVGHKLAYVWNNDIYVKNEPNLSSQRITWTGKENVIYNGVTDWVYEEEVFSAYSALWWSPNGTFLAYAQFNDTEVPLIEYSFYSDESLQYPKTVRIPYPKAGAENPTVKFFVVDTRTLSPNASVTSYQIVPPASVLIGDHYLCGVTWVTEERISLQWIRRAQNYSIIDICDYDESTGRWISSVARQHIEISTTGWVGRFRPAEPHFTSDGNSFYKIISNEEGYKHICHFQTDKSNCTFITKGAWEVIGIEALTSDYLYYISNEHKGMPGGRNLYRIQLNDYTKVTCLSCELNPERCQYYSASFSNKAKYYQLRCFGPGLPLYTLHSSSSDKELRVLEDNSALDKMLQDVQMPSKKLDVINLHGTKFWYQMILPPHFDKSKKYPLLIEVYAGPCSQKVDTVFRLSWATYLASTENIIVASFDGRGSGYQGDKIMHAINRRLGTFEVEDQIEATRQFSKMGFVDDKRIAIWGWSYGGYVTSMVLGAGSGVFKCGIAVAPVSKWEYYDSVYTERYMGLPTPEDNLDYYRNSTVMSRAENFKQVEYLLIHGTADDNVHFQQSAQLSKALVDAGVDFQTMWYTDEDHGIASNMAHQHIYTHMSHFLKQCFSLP

Turning to `N[C@@H](CCCC(=O)O)C(=S)N1CCC[C@H]1B(O)O` [Aad-boroPro Thioxamide], the “Inactivation Index” value is given as 12,000. Besides, the IC50 under setting [1] came out at 1.6 nM. Also, the IC50 under setting [2] was 19000 nM.

Regarding `N[C@@H](CCCC(=O)O)C(=O)N1CCC[C@H]1B(O)O` [Aad-boroPro, reference compound], the “Inactivation Index” value is 1,600. Further, the IC50 under setting [1] was found to be 4.5 nM. For the same molecule, under setting [2], the 50% inhibitory concentration (IC50) came out at 7400 nM.

For `C[C@H](NC(=S)[C@H](C)N)B(O)O` [Ala-boroAla Thioxamide], the “Inactivation Index” value is 1.2. Also, under setting [1], the concentration for half-maximal inhibition (IC50) came out at 6500 nM. Further, the 50% inhibitory concentration (IC50) under setting [2] is 7700 nM.

Turning to `C[C@H](NC(=O)[C@H](C)N)B(O)O` [Ala-boroAla, reference compound], the “Inactivation Index” value is reported as 7.0. The 50% inhibitory concentration (IC50) under setting [1] was 63 nM. Also, the half-inhibitory concentration (IC50) under setting [2] worked out at 440 nM.

Turning to `N=C(N)NCCC[C@H](N)C(=S)N1CCC[C@H]1B(O)O` [Arg-boroPro Thioxamide], the concentration for half-maximal inhibition (IC50) under setting [1] was 1.2 nM. For the setting “pH 8.0, result in words”, the “IC50 (pH 8.0)” value is reported as “No inhibition”.

As for `N=C(N)NCCC[C@H](N)C(=O)N1CCC[C@H]1B(O)O` [Arg-boroPro, reference compound], the “Inactivation Index” value is 3,900. Moreover, the half-inhibitory concentration (IC50) under setting [1] was found to be 1.8 nM. In addition, under setting [2], the concentration for half-maximal inhibition (IC50) came out at 7100 nM.

For `N[C@@H](CC(=O)O)C(=S)N1CCC[C@H]1B(O)O` [Asp-boroPro Thioxamide], the “Inactivation Index” value was 1,700. Moreover, under setting [1], the IC50 came to 17 nM. For the same molecule, under setting [2], the half-inhibitory concentration (IC50) came out at 28000 nM.

Turning to `N[C@H](C(=S)N1CCC[C@H]1B(O)O)C1CCCCC1` [Chg-boroPro Thioxamide], the “Inactivation Index” value is listed as 2,300. Also, the IC50 under setting [1] amounted to 4 nM. Besides, under setting [2], the IC50 was found to be 9000 nM.

As for `N[C@@H](CCC(=O)O)C(=O)N1CCC[C@H]1B(O)O` [Glu-boroPro, reference compound], the “Inactivation Index” value was 500. Moreover, the IC50 under setting [1] stood at 6 nM. In addition, the IC50 under setting [2] is 3000 nM.

For the molecule `NCC(=S)N1CCC[C@H]1B(O)O` [Gly-boroPro Thioxamide], the “Inactivation Index” value worked out at 630. Further, under setting [1], the IC50 was found to be 3 nM. For the same molecule, under setting [2], the IC50 came out at 1900 nM.

As for `NCC(=O)N1CCC[C@H]1B(O)O` [Gly-boroPro, reference compound], the “Inactivation Index” value was 7,000. Moreover, the IC50 under setting [1] worked out at 1 nM. Further, under setting [2], the IC50 was determined as 7000 nM.

For `OB(O)[C@@H]1CCCN1C(=S)CNCc1ccccc1` [N-(Benzyl)-Gly-boroPro Thioxamide], the “Inactivation Index” value is 7.1. The IC50 under setting [1] was found to be 24 nM. Further, under setting [2], the IC50 was 170 nM.

Turning to `O=C(CNCc1ccccc1)N1CCC[C@H]1B(O)O` [N-(Benzyl)-Gly-boroPro, reference compound], the “Inactivation Index” value is 7,300. Further, the IC50 under setting [1] turned out to be 9.5 nM. Under setting [2], the concentration for half-maximal inhibition (IC50) was found to be 69000 nM.

`OB(O)[C@@H]1CCCN1C(=S)CNC12CC3CC(CC(O)(C3)C1)C2` [NVP-LAF237 analogue Thioxamide]: the “Inactivation Index” value is reported as 250. The IC50 under setting [1] came to 160 nM. The IC50 under setting [2] was found to be 40000 nM.

In the case of `O=C(CNC12CC3CC(CC(O)(C3)C1)C2)N1CCC[C@H]1B(O)O` [NVP-LAF237 analogue, reference compound], the “Inactivation Index” value turned out to be 1.7. The IC50 under setting [1] amounted to 42 nM. Also, the IC50 under setting [2] is 72 nM.

As to `O=C([C@@H]1CCCN1)N1CCC[C@H]1B(O)O` [Pro-boroPro, reference compound], the “Inactivation Index” value is recorded as 21,000. In addition, the half-maximal inhibitory concentration (IC50) under setting [1] is 1.1 nM. Besides, the 50% inhibitory concentration (IC50) under setting [2] was 23000 nM.

For `N[C@@H](Cc1c[nH]c2ccccc12)C(=S)N1CCC[C@H]1B(O)O` [Trp-boroPro Thioxamide], the “Inactivation Index” value is 440. For the same molecule, under setting [1], the concentration for half-maximal inhibition (IC50) amounted to 1.6 nM. The IC50 under setting [2] was found to be 700 nM.

Consider `N[C@@H](Cc1c[nH]c2ccccc12)C(=O)N1CCC[C@H]1B(O)O` [Trp-boroPro, reference compound], for which the “Inactivation Index” value was 1500. Further, the concentration for half-maximal inhibition (IC50) under setting [1] amounted to 2 nM. Moreover, the half-maximal inhibitory concentration (IC50) under setting [2] turned out to be 3000 nM.
